This note sets out measurements from patent US20250195508A1, “COMPOUNDS AND COMPOSITIONS FOR ANITMALARIAL THERAPEUTIC AND PROPHYLACTIC USE” (UNIVERSITY OF CENTRAL FLORIDA RESEARCH FOUNDATION, INC., priority 2022, published 2025).

Broadly, the EC50 is the concentration giving half of the maximal effect.

The first test deals with P. falciparum Dd2. The test can be described thus: Rate of killing assay. Type of test: cell-based. The settings on record: 10×EC50, 12-hour exposure then wash off. The procedure: Asynchronous P. falciparum Dd2 cultures were plated at 1% parasitemia, 4% hematocrit into a 24-well plate, incubated at 37° C. in 5% CO2. Wells were treated with 10×EC50 of compound for 12, 24, or 48 hours before the compound was removed. Every 24 hours thereafter for 4 days total, culture samples were washed in 0.5% BSA and stained with 1×SYBR Green I and 60 μM MitoTracker Deep Red FM for 20 minutes at 37° C. After another wash in 0.5% BSA, samples were resuspended in PBS and analyzed via flow cytometry with a CytoFLEX S™, with 100,000 events recorded per sample. For gating, the following controls were used: uninfected RBCs, untreated culture, DHA-treated culture, and untreated culture without MitoTracker stain. Viable parasite percentage was determined by finding the fraction of SYBR Green/MitoTracker double positive cells from the total events. Analysis was performed with FlowJo software Version 10.
Asynchronous cultures of P. falciparum Dd2 parasites were treated with 10×EC50 of the indicated compound for 12 hours prior to compound wash off. Flow cytometry with SYBR Green I (nuclear dye) and Mitotracker Deep Red FM (mitochondria staining) was done after compound wash-off every 24 hours after for […] (100,000 events/sample) to track parasitemia (data from 3 biological replicates±SEM).
As to `C[C@H]1[C@@H](O)O[C@@H]2O[C@@]3(C)CC[C@H]4[C@H](C)CC[C@@H]1[C@@]24OO3` [dihydroartemisinin (DHA), dihydroartemisinin, reference compound], the Killing profile entry is “pronounced irreversible killing”.

The next test has as its system P. berghei luc sporozoites (Pb-Luc). The test can be described thus: Prophylaxis assay, single IV dose 6 hours before Pb-Luc sporozoite infection. Type of test: in vivo, mice. The settings on record: single dose 15 mg/kg 6 hours before infection; after 22 days. The procedure: (§1) TL5-135 was dissolved or resuspended in a suspending vehicle consisting of 30% DMSO, 1% methylcellulose, 0.5% TWEEN-80, and 68.5% ultrapure water. GNF179 was resuspended in 30% DMSO, 30% PEG400, 5% TWEEN-80, 35% saline, and administered intravenously.
(§2) For prophylaxis assays, a single dose of […] was administrated 6 hours before infection. For therapeutic assays, in a 4-day's Peters test, 4 doses (each 15 mg/kg) were administrated 6, 18, 30, and 42 hours post infection.
(§3) The antimalarial activity was measured as a percent reduction in parasitemia from day one until day twelve post-infection.
Infection was initiated using 100,000 P. berghei luc sporozoites (Pb-Luc). The drugs were administered IV at 50 mg/kg, single dose 6 hours prior. I: infected, UI: uninfected.
(§4) Groups of 5 mice were infected with 100,000 Pb-Luc sporozoites by IV injection. Prophylactic (single dose of 50 mg/kg through IV injection, 6 hour before infection) and therapeutic (4-day Peters test, 4 doses of 15 mg/kg each time were administrated post-infection at 6, 18, 30, and 42 hours post infection (hpi) and the activity of the compounds was evaluated. See FIG. 8A. The parasitemia was estimated after flow cytometric enumeration of rodent malaria parasite Pb-Luc-infected red blood cells (RBS) stained with SYBR Green I, from day 3 until 20.
(§5) TL5-135 and GNF179 antimalarial compounds were tested against Pb-Luc sporozoites. Prophylactic activity (single dose of 15 mg/kg through an IV injection, 6 hours before infection) and therapeutic activity (4-day Peters test, 4 doses of 15 mg/kg each time was administrated at 6, 18, 30, and 42 hpi of the TL5-135 antimalarial compound was evaluated. As before, groups of five mice were infected with 100,000 Pb-Luc sporozoites by IV injection. The parasitemia was estimated after flow cytometric enumeration of rodent malaria parasite Pb-Luc-infected red blood cells (RBS) stained with SYBR Green I, from day 3 until day 20. See FIG. 8B.
With `CC1(C)c2nc(-c3ccc(F)cc3)c(Nc3ccc(Cl)cc3)n2CCN1C(=O)CN` [GNF179, reference compound], the “Condition of mice after prophylactic treatment” value is “still healthy and alive”.

In the next test the test system is Pb-Luc sporozoites. The test can be described thus: Therapeutic assay, 4-day Peters test against Pb-Luc sporozoites. Format: in vivo, mice. The settings on record: 4 doses of 15 mg/kg at 6, 18, 30, 42 hours post infection. The procedure:
as §1, §2, §3
However, the mice treated with TL5-135 as a therapeutic had about 2.4% parasitemia after 12 days post-infection (all negative control mice died between days 11-13). The parasitemia on day 21 (21 days post-infection) for the group of mice was 35%.
as §4, §5
Regarding `CC1(C)c2nc(-c3ccc(F)cc3)c(Nc3ccc(Cl)cc3)n2CCN1C(=O)CN` [GNF179, reference compound], the “Condition of mice after therapeutic treatment” value is “healthy and without parasites”.

For a further test, the system named is P. falciparum Dd2. The test can be described thus: 72 h SYBR Green I assay (Dd2 Proliferation Assay). Type of test: cell-based. The settings on record: 72 hour SYBR Green I; Table 2; read-out: Dd2 EC50 (nM) ± SD. The procedure: Several analogs were synthesized based on the structure of TL5-135 for further study. […] For the data in Table 1, compounds were subjected to in vitro biochemical kinase assays done using recombinant human ephrin type-A receptor 2 (EPHA2) (expressed in insect cells) in a Z′-LYTE® FRET-based kinase assay. P. falciparum Dd2 EC50 was determined using the standard 72 hour SYBR Green I assay (Dd2 Proliferation Assay) as known in the art. […] The structures of compoundsTL5-134, TL5-139, and TL5-145 are shown below.
In vitro biochemical kinase assays were done using recombinant human EPHA2 (expressed in insect cells) in a Z′-LYTE® FRET-based kinase assay. P. falciparum Dd2 EC50 was determined using the standard 72 h SYBR Green I assay.
Asynchronous blood stage P. falciparum Dd2 cultures were plated at 1% parasitemia and 1% hematocrit in a 96-well plate and incubated with serial dilutions of compound for 72 hours at 37° C. in 5% CO2. DMSO concentrations were kept at a sub-lethal percentage (<0.2%). Five micromolar chloroquine was used as a negative parasite growth control. Plates were then frozen at −80° C. and thawed, and 100 μL SYBR Green I-containing lysis buffer (20 mM Tris-HCl, 5 mM EDTA, 0.8% Triton X-100, 0.08% saponin, and 0.0001% SYBR Green I) was added to the wells. After incubation for 45 minutes at room temperature protected from light, fluorescence emission was read with a multimode microplate reader, at 485 nm excitation and 530 nm emission. Results were normalized using untreated and chloroquine-treated controls, and EC50 was determined with CDD Vault.
To establish the utility of kinase inhibitor compounds synthesized in the Gray laboratory as a source of novel antimalarial activities, the libraries (containing 1,100 compounds) were screened using the well-established SYBR Green I-based fluorescence assay as known in the art. This screen yielded 34 compounds with EC50<500 nM in the CQ^R Dd2 strain. These hits were subjected to counter-screening against human HepG2 cells using CellTiter 96® AQueous (Promega™) MTS-based cell proliferation assay to identify asexual and liver stage antiplasmodial hits.
P. falciparum Dd2 EC50 was determined using SYBR Green I assay. For the selectivity index ([…]) cytotoxicity was determined using CellTiter 96® AQueous MTS. The liver stage assay was performed using P. berghei luciferase expressing parasites. All assays were performed with technical quadruplicates and 3 biological replicates. Assays have a Z′ factor >0.7.
With `CCN1CCN(Cc2ccc(NC(=O)c3cc(NC(=O)c4cncc(-c5cccs5)c4)cc(C(F)(F)F)c3)cc2C(F)(F)F)CC1` [LSW-03-055], the EC50 worked out at 86.6 ± 2.92 nM.

As to `CCN1CCN(Cc2ccc(NC(=O)c3cc(Cl)cc(NC(=O)c4cncc(-c5ccco5)c4)c3)cc2C(F)(F)F)CC1` [LSW-03-006], the EC50 was determined as 97.2 ± 23.3 nM.

With `CCN1CCN(Cc2ccc(NC(=O)c3cc(NC(=O)c4cncc(-c5cccs5)c4)ccc3F)cc2C(F)(F)F)CC1` [LSW-03-067], the EC50 is 867 ± 68.3 nM.

Regarding `CCN1CCN(Cc2ccc(NC(=O)c3cc(Br)cc(NC(=O)c4cncc(-c5cccs5)c4)c3)cc2C(F)(F)F)CC1` [LSW-03-071], the EC50 came to 108 ± 9.08 nM.

As to `O=C(Nc1cccc(C(F)(F)F)c1)c1cc(Cl)cc(NC(=O)c2cncc(-c3cccs3)c2)c1` [LSW-03-033], the EC50 stood at 422 ± 36 nM.

Consider `CCN1CCN(Cc2ccc(NC(=O)c3cc(Cl)cc(NC(=O)c4cncc(C)c4)c3)cc2C(F)(F)F)CC1` [LSW-03-007], for which the EC50 was 164 ± 14.7 nM.

With `CCN1CCN(Cc2ccc(NC(=O)c3cc(Cl)cc(NC(=O)c4cncnc4)c3)cc2C(F)(F)F)CC1` [LSW-03-072], the EC50 is 330 ± 27.4 nM.

For the molecule `CCN1CCN(Cc2ccc(NC(=O)c3cc(F)cc(NC(=O)c4cncc(-c5cccs5)c4)c3)cc2C(F)(F)F)CC1` [LSW-03-054], the EC50 worked out at 99.5 ± 12.7 nM.

With `CCN1CCN(Cc2ccc(NC(=O)c3cc(Cl)cc(NC(=O)c4cccc(-c5cccs5)c4)c3)cc2C(F)(F)F)CC1` [LSW-03-015], the EC50 was found to be 314 ± 17.4 nM.

As to `CCN1CCN(Cc2ccc(NC(=O)c3cc(Cl)cc(NC(=O)c4cncc(-c5ccc(C#N)cc5)c4)c3)cc2C(F)(F)F)CC1` [LSW-03-077], the EC50 is 43.8 ± 7.9 nM.

As for `O=C(Nc1ccnc(N2CCOCC2)c1)c1cc(Cl)cc(NC(=O)c2cncc(-c3cccs3)c2)c1` [LSW-03-081], the EC50 was 732 ± 124 nM.

With `CCN1CCN(Cc2ccc(NC(=O)c3cc(Cl)cc(NC(=O)c4cncc(-c5cccs5)c4)c3)cc2)CC1` [LSW-03-030], the EC50 was determined as 99.6 ± 8.6 nM.

For `CCN1CCN(Cc2ccc(NC(=O)c3cc(NC(=O)c4cncc(-c5cccs5)c4)cc(Cl)c3F)cc2C(F)(F)F)CC1` [LSW-03-059], the EC50 turned out to be 104 ± 8.67 nM.

The same test, now with this note: Plasmodium falciparum, DD2, 72 h, read-out: Antiplasmodial Dd2 EC50 (nM) ± SD.
In the case of `CCN1CCN(Cc2ccc(NC(=O)c3cncc(NC(=O)c4cncc(-c5cccs5)c4)c3)cc2C(F)(F)F)CC1` [TL5-139], the EC50 came to 191 nM.

`CCN1CCN(Cc2ccc(NC(=O)c3cc(NC(=O)c4cncc(-c5cccs5)c4)cc(OC)c3)cc2C(F)(F)F)CC1` [TL5-134]: the EC50 is 341 nM.

On to `CCN1CCN(Cc2ccc(NC(=O)c3ccnc(NC(=O)c4cncc(-c5cccs5)c4)c3)cc2C(F)(F)F)CC1` [TL5-145], for which the EC50 is 391 nM.

The same test, now with this note: Plasmodium falciparum, DD2; 72 hour SYBR Green I; Table 2; read-out: Dd2 EC50 (nM) ± SD.
Take `CCN1CCN(Cc2ccc(NC(=O)c3cc(Cl)cc(NC(=O)N4CCN(C)CC4)c3)cc2C(F)(F)F)CC1` [LSW-03-080]: the EC50 was determined as 2120 nM.

For the molecule `CCN1CCN(Cc2ccc(NC(=O)c3cc(Cl)cc(NC(=O)c4cccnc4)c3)cc2C(F)(F)F)CC1` [LSW-03-008], the half-maximal effective concentration (EC50) worked out at 407 ± 56 nM.

On to `CCN1CCN(Cc2ccc(NC(=O)c3cc(Cl)cc(NCc4cncc(-c5cccs5)c4)c3)cc2C(F)(F)F)CC1` [LSW-03-014], for which the EC50 amounted to 315 ± 18.7 nM.
